Experimental data: paper PMC7311426, “An amphipathic peptide with antibiotic activity against multidrug-resistant Gram-negative bacteria” (Nature Communications, 2020)
Converted amounts (≈) assume the structure as drawn. Where two headings read alike, the source gives them in different places. One block for each compound: values may come before it. Residues, ends and D or L forms follow the SMILES beside them.

What was measured:
A. baumannii = test: microbe, parasite or virus in culture
Outline: (§1)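 MICs were scored by eye after 18-20 h static incubation at 37 °C, with bacteria at 5 × 10^5 CFU mL^−1 in MHB. Peptides were serially diluted 2-fold over 12 points, top 128 or 64 μg mL^−1. CAMHB (CLSI) and 1% agarose-MHB variants were also run, at least six replicates.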

C. albicans = test: microbe, parasite or virus in culture; conditions: for MIC: Candida albicans
C. neoformans = test: microbe, parasite or virus in culture; conditions: for MIC: Cryptococcus neoformans, ATCC208821, read-out: BMD MIC, C. neoformans ATCC 208821 H99
E. coli = test: microbe, parasite or virus in culture
Outline: as §1

K. pneumoniae = test: microbe, parasite or virus in culture
Outline: as §1

L. monocytogenes = test: microbe, parasite or virus in culture
Outline: as §1

P. aeruginosa = test: microbe, parasite or virus in culture
Outline: as §1

S. enterica Typhi = test: microbe, parasite or virus in culture; conditions: Typhi
Outline: as §1

E. coli ATCC 25922 = test: microbe, parasite or virus in culture; assay type: cell-based, Escherichia coli; conditions: ATCC 25922
Protocol: Assays were performed in Mueller Hinton broth (MHB; BD, Cat. No. 211443) for bacteria, and yeast extract-peptone dextrose (YPD; Sigma-Aldrich, Y1500) for yeast. The concentrations of the peptides and comparator antibiotics/antifungals in the assay wells ranged from either 128 or 64 μg mL^−1, to 0.06 or 0.03 μg mL^−1 as a 12-point dose response plated as a 2-fold dilution series across the wells of the plate in duplicate for each independent biological replicate, using a final cell density of 5 × 10^5 CFU mL^−1 and 2.5 × 10^3 CFU mL^−1 for bacteria and yeast respectively. Final assay volumes were 100 μL per well with MICs determined visually following 18-20 h incubation at 37 °C for bacteria, 24 h incubation at 35 °C for Candida albicans, and 24 h incubation at 35 °C with resazurin addition (0.006%; Sigma-Aldrich, Cat # R7017) for a further 3 h for Cryptococcus neoformans, without shaking. Additional bacterial and yeast susceptibility assays were performed in Cation-Adjusted Mueller Hinton Broth (CAMHB; BD, Cat No. 212322) and Roswell Park Memorial Institute (RPMI) 1640 culture medium (Life Technologies Australia, Cat No. 21870092), respectively, as recommended by CLSI guidelines (M07 11th ed[36] and M27 4th ed[37]). […] However, for yeast it was determined that the YPD media was more reliable and robust between repeats and therefore MICs in this media are reported. […] Agarose MICs were determined in MHB with 1% agarose (Bioline molecular grade; Cat no: BIO-41025; high purity, high gel strength). All experiments were performed a minimum of six replicates (n ≥ 6).

in vitro = conditions: human
Protocol: (§2) HEK-293 human embryonic kidney cells (ATCC CRL-1573), HepG2 liver hepatocellular carcinoma cells (ATCC HB-8065), and HK-2 human kidney proximal tubule cells (ATCC CRL-2190) cell lines were purchased from ATCC. Cytotoxicity of arenicin-3 variants was determined using the Alamar Blue (resazurin; Sigma-Aldrich, Cat # R7017), with 1% FBS for HK-2 and 10% FBS for HEK-293, and HepG2[40]. Cells were seeded as 2000 cells per well in black wall clear bottom 384-well plates (Corning®, Costar®, Cat # 3712). The cells were incubated for 24 h at 37 °C, 5% CO2. Then peptides were added into each cell containing well. After 24 h incubation, 5 μM resazurin were added per well and incubated at 37 °C for 2 h. Then the fluorescence intensity (FI) was read using a Polarstar® Omega plate reader with excitation/emission 560/590 and CC50 values were determined using Prism 8 following curve fitting and applying the following equation: Percentageviability = (FITEST-FINegative/FIUNTREATED-FINegative)×100.
(§3) Hemolytic activity was measured against isolated human erythrocytes from anonymously donated fresh human blood. Isolated erythrocytes were adjusted to 1 × 10^9 blood cells mL^−1 in phosphate-buffered saline (PBS, pH 7.4), added to the wells of NUNC polypropylene round-bottom 96-well plates (Sigma-Aldrich, Cat # P6866) then up to 300 μg mL^−1 of compound was added per well and incubated for 3 h at 37 °C. Following incubation, samples were centrifuged at 3000 rpm for 20 min, and the supernatants, 100 μL, were carefully collected for measurement. The degree of hemolysis in the samples was determined by measurement of the absorption of the supernatants at 540 nm using the Polarstar-Omega plate reader. 1% Triton-X100 was used as positive control for inducing 100% hemolysis. HC10 and HC50 values were determined using Prism 8 following curve fitting. The use of human blood (sourced from the Australian Red Cross Blood Service) for hemolysis assays was approved by the University of Queensland Institutional Human Research Ethics Committee, Approval Number 2014000031. All in vitro toxicity assays were performed for two independent biological replicates as an 8-point dose response of 3-fold dilution series in triplicate with the highest test concentration of 300 μg mL^−1.

[1] = test system: HEK-293 human embryonic kidney cells; test: in vitro
Protocol: as §2, §3

[2] = test system: HK-2 human kidney proximal tubule cells; test: in vitro
Protocol: as §2, §3

[3] = test system: HepG2 liver hepatocellular carcinoma cells; test: in vitro
Protocol: as §2, §3

[4] = test system: human erythrocytes (HRBC); assay type: cell-based; conditions: for Heamolysis HC10: red cells of human, 3 h
E. coli K12 MG1655 = test: ATP release, BacTiter-Glo luminescence; assay type: cell-based, Escherichia coli; conditions: E. coli K12, X = xMIC, 24 Y values
Protocol: ATP was measured using the BacTiter-Glo^TM Microbial Cell Viability Assay (Promega) following the manufacturer’s instructions. The assay was performed for three biological replicates at 37 °C, with luminescence recorded using a Tecan Infinite M1000 Pro plate reader. The fold reduction of ATP was calculated as: Fold reduction ATP = 1 − (Ltreat − Lmedia/Lcontrol − Lmedia); where Ltreat is the luminescence of treated cells, Lmedia is the luminescence of CAMHB without cells, and Lcontrol is the luminescence of untreated cells. Resultant graphs show mean (n = 7) and std error for each data point, prepared in Prism 8. DMSO was included as a control as piperacillin was solubilized in DMSO, with final assay concentration of 2.5%.

[5] = fit headed 10 min, four-parameter variable slope
[6] = fit headed 30 min, four-parameter variable slope
[7] = fit headed 60 min, four-parameter variable slope

SMILES: CC(C)[C@@H]1NC(=O)CNC(=O)[C@H](CC(N)=O)NC(=O)[C@H](CCCNC(=N)N)NC(=O)[C@H](CCCNC(=N)N)NC(=O)[C@H](C(C)C)NC(=O)[C@@H]2CSSC[C@H](NC(=O)[C@H](C(C)C)NC(=O)[C@H](CCCNC(=N)N)NC1=O)C(=O)N[C@@H](Cc1c[nH]cn1)C(=O)N[C@@H](CCCNC(=N)N)C(=O)N[C@@H](CCCNC(=N)N)C(=O)N[C@H](C(=O)N[C@@H](CC(N)=O)C(=O)O)CSSC[C@H](NC(=O)[C@H](Cc1ccccc1)NC(=O)CN)C(=O)N[C@@H](Cc1c[nH]c3ccccc13)C(=O)N[C@@H](CC(N)=O)C(=O)N[C@@H](C(C)C)C(=O)N2 [NZ17143] (HELM PEPTIDE1{G.F.C.W.N.V.C.V.R.R.N.G.V.R.V.C.H.R.R.C.N}$PEPTIDE1,PEPTIDE1,3:R3-20:R3|PEPTIDE1,PEPTIDE1,7:R3-16:R3$$$V2.0)
- BMD MIC (A. baumannii): 2 µg/mL
- BMD MIC (C. albicans): >32 µg/mL
- BMD MIC (C. albicans; 24 h): 32 µg/mL
- BMD MIC (C. neoformans): 4 µg/mL
- MIC against ESBL producing E. coli DSA 443 (E. coli): 0.5 µg/mL (≈ 0.198 µM)
- BMD MIC (K. pneumoniae): 1 µg/mL
- BMD MIC (L. monocytogenes): 8 µg/mL
- BMD MIC (P. aeruginosa): 1 µg/mL
- BMD MIC (S. enterica Typhi): 0.5 µg/mL
- MIC, MHB (E. coli ATCC 25922): 0.25 µg/mL (≈ 0.0988 µM)
- CC50 at 24 h (in vitro; HEK-293 cells): > 300 µg/mL
- CC50 at 24 h (in vitro; HK-2 cells): > 250 µg/mL
- CC50 at 24 h (in vitro; HepG2 cells): > 300 µg/mL
- CC50 HEK293 [1]: >300 µg/mL
- CC50 HEK293, Mean [1]: >300 µg/mL
- CC50 HK2 [2]: >253 µg/mL
- CC50 HK2, Mean [2]: >250 µg/mL
- CC50 HepG2 [3]: >300 µg/mL
- CC50 HepG2, Mean [3]: >300 µg/mL
- Heamolysis HC10, Mean [4]: >300 µg/mL
- Heamolysis HC10 [4]: >300 µg/mL

- BMD MIC (C. albicans; C. albicans ATCC 90028 NCCLS 11, RPMI, mode of 6 replicates): 0.5 µg/mL
- BMD MIC (C. albicans; C. albicans ATCC 90028 NCCLS 11, YPD, 24 h 35 °C, mode of 6 replicates): 1 µg/mL
- BMD MIC (C. neoformans; C. neoformans ATCC 208821 H99, RPMI, mode of 6 replicates): 0.5 µg/mL
- BMD MIC (C. neoformans; C. neoformans ATCC 208821 H99, YPD, 24 h 35 °C + resazurin 3 h, mode of 6 replicates): 0.5 µg/mL
SMILES: C[C@@H]1[C@H](O)[C@@H](C)/C=C/C=C/C=C/C=C/C=C/C=C/C=C/[C@H](O[C@@H]2O[C@H](C)[C@@H](O)[C@H](N)[C@@H]2O)C[C@@H]2O[C@](O)(C[C@@H](O)C[C@@H](O)[C@H](O)CC[C@@H](O)C[C@@H](O)CC(=O)O[C@H]1C)C[C@H](O)[C@H]2C(=O)O [Amphroterocin B, reference compound]

SMILES: CC[C@H](C)[C@@H]1NC(=O)[C@H](CCCNC(=N)N)NC(=O)[C@H](C(C)C)NC(=O)CNC(=O)[C@H](CC(N)=O)NC(=O)[C@H](CCCNC(=N)N)NC(=O)[C@H](Cc2ccc(O)cc2)NC(=O)[C@H](C(C)C)NC(=O)[C@@H]2CSSC[C@H](NC1=O)C(=O)N[C@@H](Cc1c[nH]cn1)C(=O)N[C@@H](CCCNC(=N)N)C(=O)N[C@@H](CCCNC(=N)N)C(=O)N[C@H](C(=O)N[C@@H](CC(N)=O)C(=O)O)CSSC[C@H](NC(=O)[C@H](Cc1ccccc1)NC(=O)CN)C(=O)N[C@@H](Cc1c[nH]c3ccccc13)C(=O)N[C@@H](CC(N)=O)C(=O)N[C@@H](C(C)C)C(=O)N2 [NZ17211] (HELM PEPTIDE1{G.F.C.W.N.V.C.V.Y.R.N.G.V.R.I.C.H.R.R.C.N}$PEPTIDE1,PEPTIDE1,3:R3-20:R3|PEPTIDE1,PEPTIDE1,7:R3-16:R3$$$V2.0)
- BMD MIC (A. baumannii): 4 µg/mL
- BMD MIC (C. albicans): >32 µg/mL
- BMD MIC (C. albicans; 24 h): 64 µg/mL
- BMD MIC (C. neoformans): 4 µg/mL
- MIC against ESBL producing E. coli DSA 443 (E. coli): 2.0 µg/mL (≈ 0.784 µM)
- BMD MIC (K. pneumoniae): 2 µg/mL
- BMD MIC (L. monocytogenes): 16 µg/mL
- BMD MIC (P. aeruginosa): 2 µg/mL
- BMD MIC (S. enterica Typhi): 1 µg/mL
- MIC, MHB (E. coli ATCC 25922): 0.5 µg/mL (≈ 0.196 µM)
- CC50 at 24 h (in vitro; HEK-293 cells): > 300 µg/mL
- CC50 at 24 h (in vitro; HK-2 cells): > 250 µg/mL
- CC50 at 24 h (in vitro; HepG2 cells): > 300 µg/mL
- CC50 HEK293 [1]: >300 µg/mL
- CC50 HEK293, Mean [1]: >300 µg/mL
- CC50 HK2 [2]: >255 µg/mL
- CC50 HK2, Mean [2]: >250 µg/mL
- CC50 HepG2 [3]: >300 µg/mL
- CC50 HepG2, Mean [3]: >300 µg/mL
- Heamolysis HC10, Mean [4]: >300 µg/mL
- Heamolysis HC10 [4]: >300 µg/mL

SMILES: CCN1CCN(C(=O)N[C@@H](C(=O)N[C@@H]2C(=O)N3[C@@H]2SC(C)(C)[C@@H]3C(=O)O)c2ccccc2)C(=O)C1=O [piperacillin]
- MIC (E. coli; Escherichia coli, ATCC700926|MG1655, read-out: BMD MIC, E. coli ATCC 700926 K12 (MG1655), CAMHB, mode of 6 replicates): 2 µg/mL (≈ 3.86 µM)
- ATP release, nonlinear fit: HillSlope (E. coli K12 MG1655; [5]): ~ -467.9
- ATP release, nonlinear fit: IC50 (E. coli K12 MG1655; [5]): ~ 31.42 xMIC
- ATP release, nonlinear fit: LogIC50 (E. coli K12 MG1655; [5]): ~ 1.497
- ATP release, nonlinear fit: Top (E. coli K12 MG1655; [5]): 0.08165
- ATP release, nonlinear fit: Bottom (E. coli K12 MG1655; fit headed 10 min, log(inhibitor) vs. response, variable slope (four parameters)): 0.04818
- ATP release, nonlinear fit: Bottom (E. coli K12 MG1655; [6]): ~ 0.04736
- ATP release, nonlinear fit: IC50 (E. coli K12 MG1655; [6]): ~ 0.000 xMIC
- ATP release, nonlinear fit: Top (E. coli K12 MG1655; [6]): 0.07515
- ATP release, nonlinear fit: Bottom (E. coli K12 MG1655; [7]): 0.00107
- ATP release, nonlinear fit: HillSlope (E. coli K12 MG1655; [7]): ~ 0.6194
- ATP release, nonlinear fit: LogIC50 (E. coli K12 MG1655; [7]): ~ 16.74
- ATP release, nonlinear fit: Top (E. coli K12 MG1655; [7]): 0.1665

- MIC (C. albicans; ATCC90028, 24 h, read-out: BMD MIC): 1 µg/mL (≈ 3.27 µM)
- MIC (C. albicans; ATCC90028, read-out: BMD MIC): 0.5 µg/mL (≈ 1.63 µM)
- MIC (C. neoformans; RPMI, mode of 6 replicates): 2 µg/mL (≈ 6.53 µM)
- MIC (C. neoformans; YPD, 24 h 35 °C + resazurin 3 h, mode of 6 replicates): 8 µg/mL
SMILES: OC(Cn1cncn1)(Cn1cncn1)c1ccc(F)cc1F [Fluconazole, reference compound]
